Here are results for five compounds from ChEMBL document CHEMBL5241060, “Glycorandomization: A promising diversification strategy for the drug development” (Eur J Med Chem, 2021).

In brackets after ≈: the same amount, converted by molar mass.

Broadly, the IC50 is the concentration that gives 50% inhibition. Read a high IC50 as a need for much substance. The MIC is the lowest concentration found to suppress growth.

The test system of experiment [1] is MDA-MB-231. Put plainly: Inhibition of cell migration in human MDA-MB-231 cells. In kind it is functional, cell-based.
In experiment [2] the test system is Escherichia coli. In words: Antibacterial activity against tetracycline resistant Escherichia coli. The format is functional.
The subject of experiment [3] is Escherichia coli. Put plainly: Antibacterial activity against tetracycline resistant Escherichia coli 1-849. The format is functional.

On to `CCCCCCCCCCCCCC(=O)NCCNC(=O)C(C)(C)C(=O)NCCO[C@@H]1O[C@H](COC(C)=O)[C@@H](O[C@@H]2O[C@H](COC(C)=O)[C@H](OC(C)=O)[C@H](OC(C)=O)[C@H]2OC(C)=O)[C@H](OC(C)=O)[C@H]1OC(C)=O`, for which, in experiment [1], the half-inhibitory concentration (IC50) is greater than 50 µM.
Turning to `C[C@H]1O[C@@H](O[C@@H]2[C@@H](O)[C@H](N)C[C@H](N)[C@H]2O[C@H]2O[C@H](CN)[C@@H](O)[C@H](O)[C@H]2N)[C@H](O)[C@@H](O)[C@@H]1N`, in experiment [2], it took 9 µM (≈ 4.21 µg/mL) to inhibit growth (MIC).
Regarding `CON(CC(=O)Nc1ccc2c(c1O)C(=O)C1=C(O)[C@]3(O)C(=O)C(C(N)=O)=C(O)[C@@H](N(C)C)[C@@H]3[C@@H](O)[C@@H]1[C@H]2C)[C@H]1O[C@H](CO)[C@@H](O)[C@H](O)[C@H]1N`, the MIC in experiment [3] turned out to be 4 mg/L (≈ 5.65 µM).
`C[C@H]1O[C@@H](O[C@@H]2[C@@H](O)[C@H](N)C[C@H](N)[C@H]2O[C@H]2O[C@H](CN)[C@@H](O)[C@H](O)[C@H]2N)[C@H](O)[C@@H](O)[C@H]1N` showed an MIC in experiment [2] of 9 µM (≈ 4.21 µg/mL).
`NC[C@@H]1O[C@H](O[C@H]2[C@@H](O)[C@H](O[C@@H]3[C@@H](O)[C@H](N)C[C@H](N)[C@H]3O[C@H]3O[C@H](CN)[C@@H](O)[C@H](O)[C@H]3N)O[C@@H]2CO)[C@H](N)[C@@H](O)[C@@H]1O` [FRAMYCETIN] registered an MIC in experiment [2] of 2 µM (≈ 1.23 µg/mL).
